Assay results taken from patent publication US20130178391A1, “METHODS FOR PREDICTING TREATMENT RESPONSE BASED ON THE EXPRESSION PROFILES OF BIOMARKER GENES IN NOTCH MEDIATED CANCERS” (Rosetta Inpharmaceutics LLC, priority 2007, published 2013).

Legend:
[1] = test system: BE-13; assay: 7-day Cell Titer Glo viability assay; assay type: cell-based, Human; settings: BE-13 cells, 7-day viability assay
Procedure: (§1) Human T-ALL cell lines were purchased from ATCC (Manassas, Va.) or DSMZ (Braunschweig, Germany). Cell lines were maintained in RPMI supplemented with 10-15% FBS and 2 mmol/L glutamine. For IC50 analyses TALL cell lines were plated in 96 well plates at 5000 cells/well, except for Tall-1 cells which were plated at 10,000 cells/well. Cells were re-fed with compound and media on day 4. Viability assays were performed using Cell Titer Glo kit (Promega, Cat. No. G7572, Fitchburg, Wis.) 7 days after compound addition. For larger scale compound treatments, TALL cell lines were plated in T-150 flasks at 200,000 cells/mL and treated at 0.1 or 1.0 μM GSI (MRK-003) for 3 days or as indicated. GSI washout studies were performed using 10 μM GSI. T-150 cultures were also re-fed on day 4.

[2] = test system: CEM; assay: 7-day Cell Titer Glo viability assay; assay type: cell-based, Human; settings: CEM cells, 7-day viability assay
Procedure: as §1

[3] = test system: DND41; assay: 7-day Cell Titer Glo viability assay; assay type: cell-based, Human; settings: DND41 cells, 7-day viability assay
Procedure: as §1

[4] = test system: HBP-ALL; assay: 7-day Cell Titer Glo viability assay; assay type: cell-based, Human; settings: HBP-ALL cells, 7-day viability assay
Procedure: as §1

[5] = test system: HSB-2; assay: 7-day Cell Titer Glo viability assay; assay type: cell-based, Human; settings: HSB-2 cells, 7-day viability assay
Procedure: as §1

[6] = test system: JURKAT; assay: 7-day Cell Titer Glo viability assay; assay type: cell-based, Human; settings: JURKAT cells, 7-day viability assay
Procedure: as §1

[7] = test system: KARPAS-45; assay: 7-day Cell Titer Glo viability assay; assay type: cell-based, Human; settings: KARPAS-45 cells, 7-day viability assay
Procedure: as §1

[8] = test system: KOPTK-1; assay: 7-day Cell Titer Glo viability assay; assay type: cell-based, Human; settings: KOPTK-1 cells, 7-day viability assay
Procedure: as §1

[9] = test system: LOUCY; assay: 7-day Cell Titer Glo viability assay; assay type: cell-based, Human; settings: LOUCY cells, 7-day viability assay
Procedure: as §1

[10] = test system: MOLT -4; assay: 7-day Cell Titer Glo viability assay; assay type: cell-based, Human; settings: MOLT -4 cells, 7-day viability assay
Procedure: as §1

[11] = test system: MOLT-16; assay: 7-day Cell Titer Glo viability assay; assay type: cell-based, Human; settings: MOLT-16 cells, 7-day viability assay
Procedure: as §1

[12] = test system: PF-382; assay: 7-day Cell Titer Glo viability assay; assay type: cell-based, Human; settings: PF-382 cells, 7-day viability assay
Procedure: as §1

[13] = test system: RPMI 8402; assay: 7-day Cell Titer Glo viability assay; assay type: cell-based, Human; settings: RPMI 8402 cells, 7-day viability assay
Procedure: as §1

[14] = test system: SKW-3; assay: 7-day Cell Titer Glo viability assay; assay type: cell-based, Human; settings: SKW-3 cells, 7-day viability assay
Procedure: as §1

[15] = test system: SUPT-11; assay: 7-day Cell Titer Glo viability assay; assay type: cell-based, Human; settings: SUPT-11 cells, 7-day viability assay
Procedure: as §1

[16] = test system: TALL-1; assay: 7-day Cell Titer Glo viability assay; assay type: cell-based, Human; settings: TALL-1 cells, 7-day viability assay
Procedure: as §1

[17] = test system: human T-ALL cell lines; assay: Grouping of 16 T-ALL cell lines by GSI sensitivity (7-day ATP viability assay); assay type: cell-based
Procedure: as §1
Previous studies have identified mutations in the heterodimerization domain or PEST domain of the NOTCH1 gene in T-ALL cell lines and patient samples resulting in increased NICD and presumably activation of the NOTCH signaling pathway (Weng, Ferrando et al. 2004; Zhu, Zhao et al. 2006). In a subset of human T-ALL cell lines with activating mutations in NOTCH1, treatment with GSIs leads to cell cycle arrest and apoptosis (Weng, Ferrando et al. 2004; Lewis, Leveridge et al. 2007). […] We determined IC50 values for 16 T-ALL cell lines using a 7-day viability assay which allowed grouping into four sensitivity groups (1) high, IC50<1 uM, (2) medium, IC50 3-4 uM, (3) low, IC50 6-7 uM, (4) none, IC50>10 uM and comparison to NOTCH1 mutuation and NICD protein Levels (Table1).
GSI IC50s, based on a 7-day ATP viability assay, are summarized for 16 T-ALL cell lines and grouped into high […], medium (3-4 uM), low (6-7 uM) or insensitive groupings (>10 uM). Also summarized is NOTCH1 mutation status, NICD levels and cell line group size for each sensitivity level previously described (O'Neil et al. 2007). NICD levels are reported qualitatively based on immunoblot signal, 0=none, 1=low, 2=medium, 3=high.

[18] = test system: TALL1; assay: Flow cytometry DNA content analysis (cell cycle arrest); assay type: cell-based, Human; settings: GSI sensitive cell line TALL1, flow cytometry
Procedure: DNA content analysis was performed using Propidium Iodide/RNase buffer (BD Biosciences, Cat. No. 550825, San Jose, Calif.) or Draq5. Briefly, 1×10(6) cells were harvested and fixed with 70% ethanol for 20 minutes on ice, washed and then resupended in 500 uL of PI buffer for 15 min at room temperature followed by analysis on flow cytometer (FACSCalibur, BD Biosciences). Draq5 staining was performed by incubating 200,000 live cells with 10 uM Draq5 for 5 minutes followed by flow cytometric analysis (488 nm excitation).

[19] = test system: CDKN2D, CDKN1B; assay: Quantitative PCR of CDKN2D and CDKN1B in T-ALL cell lines; assay type: cell-based, Human; settings: TALL1 cells, 48 hours
Procedure: T-ALL cell lines were treated with DMSO or MRK-003 (active GSI) for 48 hours and then harvested. RNA was isolated using the RNeasy Mini Kit (Qiagen, Cat#: 74106). cDNA was synthesized using High Capacity Archive Kit (Applied Biosystems, Cat #: 4368814). qPCR was performed on an ABI 7900 using AACT protocol using their inventoried Taqman Probes/Primers for human CDKN2D, CDKN1B and GAPDH (as internal control). Analysis was performed in SDS 2.2.2 software (Applied Biosystems).

[20] = test system: CDKN2D, CDKN1B; assay: Immunoblot of CDKN2D and CDKN1B; assay type: cell-based, Human; settings: TALL1 cells
From the text: Standard western blotting procedures were used. Antibodies used as follows; Rb-underphosphorylated, (BD Biosciences, Cat. No 554164, San Jose, Calif.) Rb-Total (Cat. No. 9309), CDKN1B (Cell Signaling Technologies, Cat. No. 2552, Danvers, Mass.), CDKN2D (Santa Cruz Biotechnologies, Cat No. sc-1063, Santa Cruz, Calif.), Beta-Actin (Abcam Inc., Cat. No. 8226, Cambridge, Mass.) Immunoblot of NOTCH intracellular domain (NICD) was previously determined (O'Neil, Grim et al. 2007)

For O=S1(=O)N[C@@]2(CN1CC(F)(F)F)[C@@H]1CC[C@H]2Cc2ccc(/C=C/CN3CCC(C(F)(F)F)CC3)cc2C1 [MRK-003], the IC50 [1] was 6.8 µM, the IC50 [2] was 3.2 µM and the IC50 [3] was 0.25 µM. For the same compound, the IC50 [4] was 0.38 µM, the IC50 [5] was 3.7 µM and the IC50 [6] was greater than 10 µM. It also gave an IC50 [7] of 0.81 µM, an IC50 [8] of 0.15 µM and an IC50 [9] greater than 10 µM. The IC50 [10] was greater than 10 µM, the IC50 [11] was greater than 10 µM and the IC50 [12] was 3.2 µM. For the same compound, the IC50 [13] was 0.86 µM, the IC50 [14] was greater than 10 µM and the IC50 [15] was 7.1 µM. For the same compound, the IC50 [16] was 0.11 µM, the “GSI Sensitivity” value ([17]; cell lines BE-13, SUPT-11) was “Low (low, IC50 6-7 uM)” and the “GSI Sensitivity” value ([17]; cell lines CEM, PF-382, HSB-2) was “Medium (medium, IC50 3-4 uM)”. For the same compound, the “GSI Sensitivity” value ([17]; cell lines JURKAT, LOUCY, MOLT -4, MOLT-16, SKW-3) was “None (none, IC50>10 uM)”, the “GSI Sensitivity” value ([17]; cell lines TALL-1, KOPTK-1, DND41, HBP-ALL, KARPAS-45, RPMI 8402) was “High (high, IC50<1 uM)” and the “cell cycle arrest (FIG. 3A)” value [18] was “induced cell cycle arrest”. For the same compound, the “increases in CDKN2D and CDKN1B by quantitative PCR (FIG. 3B)” value [19] was “increases in the CDKi CDKN2D and CDKN1B” and the “increases in CDKN2D and CDKN1B by immunoblot (FIG. 3C)” value [20] was “increases in the CDKi CDKN2D and CDKN1B”.
